Entries after “also recorded” stand apart in the source; their conditions may differ.
B1: BDNF: brain derived neurotrophic factor (protein, UniProt P23560 19-247, looked up)
Neurotrophic factor BDNF …: APMKEANIRGQGGLAYPGVRTHGTLESVNGPKAGSRGLTSLADTFEHVIEELLDEDQKVRPNEENNKDADLYTSRVMLSSQVPLEPPLLFLLEEYKNYLDAANMSMRVRRHSDPARRGELSVCDSISEWVTAADKKTAVDMSGGTVTVLEKVPVSKGQLKQYFYETKCNPMGYTKEGCRGIDKRHWNSQCRTTQSYVRALTMDSKKRIGWRFIRIDTSCVCTLTIKRGR

What was measured:
[1] = system: embryonic cortical neurons; assay: Embryonic cortical neuron axonal outgrowth with or without BCX-34 (FIG. 2); type: cell-based, rat; settings: inosine or hypoxanthine 100 μM, BDNF 2 ng/ml
Protocol: (§1) These experiments were done on embryonic cortical neurons. The forebrains of […] rat pups were dissected and plated in media containing serum. After 3 hours the medium was exchanged for Medium E (Irwin et al. 2006) (Proc Nati Acad Sci U S A. 2006 Nov 28;103(48):18320-5). The cells were treated the following day with inosine or hypoxanthine, in the presence and absence of the indicated amount of the inhibitor 6-thioguanine (6-TG), and allowed to grow for 3 days. The 6-TG was added 1 hour before the hypoxanthine or inosine. Following the three days of growth, the cells were fixed and stained with Taul antibody and a fluorescent secondary antibody. Axons were then counted. […] FIG. 1 presents the data obtained.
In a similar experiment, embryonic cortical neurons were given brain derived neurotrophic factor (BDNF) (2 ng/ml), inosine, or hypoxanthine (100 μM). […] The cells were then scored for neuron axonal outgrowth. The data collected is represented in FIG. 2.

[2] = system: embryonic cortical neurons; assay: Embryonic cortical neuron axon outgrowth, competition with 6-thioguanine (FIG. 1); type: cell-based, rat; settings: 6-TG 0-80 μM added 1 hour before hypoxanthine or inosine, 3 days growth
Protocol: FIG. 1 contains two separate sets of bar graphs and line graphs representative of data obtained from embryonic cortical neuron competition experiments.
as §1

[3] = system: embryonic cortical neurons; assay: Embryonic cortical neuron outgrowth visualised by Tau1/MAP2 staining (FIG. 3); type: cell-based, rat; settings: for axonal outgrowth (Tau1/MAP2 staining): BDNF 2 ng/ml or hypoxanthine 100 μM, FIG. 3
Text: FIG. 3 is a series of photographs of embryonic cortical neurons grown in the presence of the indicated factors (BDNF, hypoxanthine, BDNF+6-thioguanine, BDNF+6-thioguanine+hypoxanthine), which have then been stained with either antibodies to Taul, antibodies to MAP2, or both antibodies to Taul and antibodies to MAP2, in order to visualize neuronal outgrowth.
as §1
Embryonic cortical neurons were grown in the presence of BDNF (2 ng/ml), hypoxanthine (100 μM), BDNF (2 ng/ml)+6-thioguanine (20 μM) , or BDNF (2 ng/ml)+6-thioguanine (20 μM)+hypoxanthine (100 μM), as described above. The cells were then fixed and stained with either antibodies to Taul, antibodies to map2, or both antibodies to Taul and antibodies to map2, and corresponding fluorescent secondary antibodies, in order to visualize axonal outgrowth.

[4] = target: Mst3b (Homo sapiens, UniProt Q9Y6E0); settings: data not shown
Chain of Mst3b (Q9Y6E0 whole entry): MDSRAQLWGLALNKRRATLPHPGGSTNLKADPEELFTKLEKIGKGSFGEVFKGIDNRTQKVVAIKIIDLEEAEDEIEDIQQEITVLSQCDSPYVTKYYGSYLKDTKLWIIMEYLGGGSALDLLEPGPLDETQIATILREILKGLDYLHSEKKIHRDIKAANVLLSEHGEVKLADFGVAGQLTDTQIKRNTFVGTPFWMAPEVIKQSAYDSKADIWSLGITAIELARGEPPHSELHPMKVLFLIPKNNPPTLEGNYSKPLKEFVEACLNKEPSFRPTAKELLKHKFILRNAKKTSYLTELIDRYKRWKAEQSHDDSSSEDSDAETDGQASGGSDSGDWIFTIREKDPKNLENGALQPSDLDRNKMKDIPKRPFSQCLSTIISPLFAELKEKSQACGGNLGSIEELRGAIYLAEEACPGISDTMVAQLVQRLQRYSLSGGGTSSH

Row | Molecule | induction of axonal outgrowth [1] | inhibition by 6-thioguanine of inosine- and hypoxanthine-induced axon outgrowth [2] | inhibition of BDNF stimulated outgrowth ([3]; BDNF 2 ng/ml + 6-thioguanine 20 μM) | inhibition by 6-thioguanine of inosine- and hypoxanthine-induced axon outgrowth ([2]; listed as 6-thioguanine) | reversal of 6-TG inhibition of BDNF stimulated outgrowth ([3]; BDNF 2 ng/ml + 6-thioguanine 20 μM + hypoxanthine 100 μM) | axonal outgrowth (Tau1/MAP2 staining) [3] | activation of Mst3b [4]
1 | OC[C@H]1O[C@@H](n2cnc3c(O)ncnc32)[C@H](O)[C@@H]1O [inosine, reference compound] | induced axonal outgrowth similarly to BDNF | similarly inhibited by 6-TG | – | – | – | – | –
2 | Nc1nc2nc[nH]c2c(=S)[nH]1 [6-TG, 6-thioguanine, reference compound] | – | competitively inhibited the actions of both inosine and hypoxanthine | can be inhibited | competitively inhibits the actions of both inosine and hypoxanthine | – | – | –
3 | O=c1[nH]cnc2nc[nH]c12 [hypoxanthine] | induced axonal outgrowth similarly to BDNF | similarly inhibited by 6-TG | – | – | inhibition can be overcome; also recorded: inhibition was overcome | cause outgrowth; also recorded: caused axonal outgrowth | activates Mst3b
4 | B1 | – | – | – | – | – | cause outgrowth; also recorded: caused axonal outgrowth | –

From patent US20120058099A1, “USE OF HYPOXANTHINE FOR PROMOTION OF NEURONAL OUTGROWTH” (CHILDREN'S MEDICAL CENTER CORPORATION, priority 2009, published 2012)
